Assay results published in patent publication US10285983B2, “3-(1H-pyrrolo[2,3-B]pyridin-2-yl)-1H-pyrazolo[3,4-B] pyridines and therapeutic uses thereof” (Samumed, LLC, priority 2015, dated 2019).

Columns and labels:
Assay type in all cases: cell-based
[1] = test system: Wnt activity (Sp5-Luc reporter, SW480 colon carcinoma cells); assay: Wnt activity screening assay, Sp5-Luc reporter gene in SW480 cells; settings: Homo sapiens; for inhibition at 10 µM: given for EC50 >10 μM, read-out: percent inhibition at 10 μM; for EC50: overnight incubation
Procedure, shortened: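 SW480 colon carcinoma cells stably expressing firefly luciferase under a human Sp5 promoter (eight TCF/LEF sites), plated in 1% FBS medium. 10-point 1:3 dilutions from 10 μM, 0.1% DMSO final, overnight at 37 °C; luminescence normalized to DMSO, four-parameter fit for EC50, % inhibition at 10 μM if EC50 >10 μM.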

[2] = test system: SW480 colon cancer cells; assay: Cell viability assay (CellTiter-Blue); settings: Homo sapiens, 96 h, four days; for inhibition at 10 µM: given for EC50 >10 μM, read-out: percent inhibition at 10 μM
Procedure, shortened: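 Approximately 2×10^3 SW480 cells per well are seeded with compound (8 points, threefold steps, top 10 μM) and incubated four days at 37 °C. CellTiter-Blue is then added for about 3 h and fluorescence read. Non-linear regression gives EC50; for values beyond 10 μM, percent inhibition at that concentration is listed.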

[3] = test system: IL-6 (THP-1 human monocyte cell line); assay: IL-6 inhibition in LPS-stimulated THP-1 cells (HTRF); settings: LPS 500 ng/mL; for EC50: 22 hours, IL6 HTRF; for inhibition at 10 µM: given for EC50 >10 μM, read-out: percent inhibition at 10 μM
Procedure, shortened: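 THP-1 cells, serum-reduced to 1% FBS for 24 h, preincubated 2 h at 37° C with compound (10-point, 1:3 series, 0.1% DMSO), then stimulated with 500 ng/mL LPS for 22 h. IL-6 quantified by HTRF 665/620 nm ratio, normalized to DMSO; EC50 by four-parameter fit, else percent inhibition at 10 μM.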

| EC50 [1] [µM] | EC50 [2] [µM] | EC50 [3] [µM] | Compound | inhibition at 10 µM [1] [%] | inhibition at 10 µM [2] [%] | inhibition at 10 µM [3] [%] |
| --- | --- | --- | --- | --- | --- | --- |
| > 10 | > 10 | 0.31 | O=C(Nc1cncc(-c2cnc3[nH]nc(-c4cc5cccnc5[nH]4)c3c2)c1)c1ccccc1 [Compound 263, N-(5-(3-(1H-Pyrrolo[2,3-b]pyridin-2-yl)-1H-pyrazolo[3,4-b]pyridin-5-yl)pyridin-3-yl)benzamide] | 29.7 | 21.1 | – |
| > 10 | > 10 | 4.65 | c1cnc2[nH]c(-c3n[nH]c4ncc(-c5ccncc5)cc34)cc2c1 [Compound 270, 5-(Pyridin-4-yl)-3-(1H-pyrrolo[2,3-b]pyridin-2-yl)-1H-pyrazolo[3,4-b]pyridine] | 0 | 23.9 | – |
| > 10 | > 10 | 0.041 | CCCCC(=O)Nc1cncc(-c2cnc3[nH]nc(-c4cc5cccnc5[nH]4)c3c2)c1 [Compound 271, N-(5-(3-(1H-Pyrrolo[2,3-b]pyridin-2-yl)-1H-pyrazolo[3,4-b]pyridin-5-yl)pyridin-3-yl)pentanamide] | 6.5 | 11.4 | – |
| > 10 | > 10 | 0.415 | O=C(Nc1cncc(-c2cnc3[nH]nc(-c4cc5cccnc5[nH]4)c3c2)c1)C1CCCC1 [Compound 274, N-(5-(3-(1H-Pyrrolo[2,3-b]pyridin-2-yl)-1H-pyrazolo[3,4-b]pyridin-5-yl)pyridin-3-yl)cyclopentanecarboxamide] | 40.3 | 54.2 | – |
| > 10 | > 10 | > 10 | CC(C)(C)CC(=O)Nc1cncc(-c2cnc3[nH]nc(-c4cc5c(-c6ccoc6)ccnc5[nH]4)c3c2)c1 [Compound 324, N-(5-(3-(4-(Furan-3-yl)-1H-pyrrolo[2,3-b]pyridin-2-yl)-1H-pyrazolo[3,4-b]pyridin-5-yl)pyridin-3-yl)-3,3-dimethylbutanamide] | 4.2 | 5.3 | 28.6 |
| > 10 | > 10 | 0.032 | CN(C)c1cncc(-c2cnc3[nH]nc(-c4cc5c(-c6cccs6)ccnc5[nH]4)c3c2)c1 [Compound 343, N,N-Dimethyl-5-(3-(4-(thiophen-2-yl)-1H-pyrrolo[2,3-b]pyridin-2-yl)-1H-pyrazolo[3,4-b]pyridin-5-yl)pyridin-3-amine] | 18.3 | 36.8 | – |
| > 10 | > 10 | 1.52 | CN(C)CCNc1cc(F)cc(-c2ccnc3[nH]c(-c4n[nH]c5ncc(-c6cncc(NC(=O)C(C)(C)C)c6)cc45)cc23)c1 [Compound 456, N-(5-(3-(4-(3-((2-(Dimethylamino)ethyl)amino)-5-fluorophenyl)-1H-pyrrolo [2,3-b]pyridin-2-yl)-1H-pyrazolo[3,4-b]pyridin-5-yl)pyridin-3-yl)pivalamide] | 42.4 | 0 | – |
| > 10 | > 10 | 0.222 | CN(C)CCNc1cc(F)cc(-c2ccnc3[nH]c(-c4n[nH]c5ncc(-c6cncc(NC(=O)C7CCC7)c6)cc45)cc23)c1 [Compound 469, N-(5-(3-(4-(3-((2-(Dimethylamino)ethyl)amino)-5-fluorophenyl)-1H-pyrrolo [2,3-b]pyridin-2-yl)-1H-pyrazolo[3,4-b]pyridin-5-yl)pyridin-3-yl)cyclobutanecarboxamide] | 47.5 | 0 | – |
| > 10 | > 10 | > 10 | Fc1cccc(-c2ccnc3[nH]c(-c4n[nH]c5ncc(-c6cncc(OCc7ccccc7)c6)cc45)cc23)c1 [Compound 518, 5-(5-(Benzyloxy)pyridin-3-yl)-3-(4-(3-fluorophenyl)-1H-pyrrolo[2,3-b]pyridin-2-yl)-1H-pyrazolo[3,4-b]pyridine] | 0 | 16.3 | 6.3 |
| > 10 | > 10 | > 10 | Oc1cncc(-c2cnc3[nH]nc(-c4cc5c(-c6ccc(F)cc6)ccnc5[nH]4)c3c2)c1 [Compound 533, 5-(3-(4-(4-Fluorophenyl)-1H-pyrrolo[2,3-b]pyridin-2-yl)-1H-pyrazolo[3,4-b]pyridin-5-yl)pyridin-3-ol] | 3.4 | 19 | 20.7 |
| > 10 | > 10 | > 10 | CN(C)CCOc1cncc(-c2cnc3[nH]nc(-c4cc5c(-c6cccnc6)ccnc5[nH]4)c3c2)c1 [Compound 563, N,N-dimethyl-2-((5-(3-(4-(pyridin-3-yl)-1H-pyrrolo[2,3-b]pyridin-2-yl)-1H-pyrazolo[3,4-b]pyridin-5-yl)pyridin-3-yl)oxy)ethan-1-amine] | 20.6 | 5.3 | 18.7 |
| > 10 | > 10 | > 10 | O=C(CC1CCNCC1)Nc1cncc(-c2cnc3[nH]nc(-c4cc5c(-c6ccncc6)ccnc5[nH]4)c3c2)c1 [Compound 577] | 12.5 | 8.7 | 0 |
| > 10 | > 10 | > 10 | CN1CCN(c2ccnc3[nH]c(-c4n[nH]c5ncc(-c6cn[nH]c6)cc45)cc23)CC1 [Compound 635, 3-(4-(4-Methylpiperazin-1-yl)-1H-pyrrolo[2,3-b]pyridin-2-yl)-5-(1H-pyrazol-4-yl)-1H-pyrazolo[3,4-b]pyridine] | 5.8 | 3.6 | 21.4 |
| > 10 | > 10 | 0.772 | Cn1cc(-c2cnc3[nH]nc(-c4cc5cccnc5[nH]4)c3c2)cn1 [Compound 652, 5-(1-Methyl-1H-pyrazol-4-yl)-3-(1H-pyrrolo[2,3-b]pyridin-2-yl)-1H-pyrazolo[3,4-b]pyridine] | 23.4 | 9.2 | – |
| > 10 | > 10 | > 10 | c1csc(-c2ccnc3[nH]c(-c4n[nH]c5ncc(-c6cncc(OC7CCCCC7)c6)cc45)cc23)c1 [Compound 703, 5-(5-(Cyclohexyloxy)pyridin-3-yl)-3-(4-(thiophen-2-yl)-1H-pyrrolo[2,3-b]pyridin-2-yl)-1H-pyrazolo[3,4-b]pyridine] | 38.6 | 23.3 | 11 |

| Compound | EC50 [1] [µM] | EC50 [2] [µM] | EC50 [3] [µM] | inhibition at 10 µM [1] [%] | inhibition at 10 µM [2] [%] | inhibition at 10 µM [3] [%] |
| --- | --- | --- | --- | --- | --- | --- |
| CC(C)(C)CC(=O)Nc1cncc(-c2cnc3[nH]nc(-c4cc5cccnc5[nH]4)c3c2)c1 [Compound 268, N-(5-(3-(1H-Pyrrolo[2,3-b]pyridin-2-yl)-1H-pyrazolo[3,4-b]pyridin-5-yl)pyridin-3-yl)-3,3-dimethylbutanamide] | 0.86 | 1.99 | 0.359 | – | – | – |
| O=C(Nc1cncc(-c2cnc3[nH]nc(-c4cc5cccnc5[nH]4)c3c2)c1)C1CCCCC1 [Compound 275, N-(5-(3-(1H-Pyrrolo[2,3-b]pyridin-2-yl)-1H-pyrazolo[3,4-b]pyridin-5-yl)pyridin-3-yl)cyclohexanecarboxamide] | 1.26 | 2.43 | 0.063 | – | – | – |
| O=C(Nc1cncc(-c2cnc3[nH]nc(-c4cc5c(-c6cccs6)ccnc5[nH]4)c3c2)c1)C1CC1 [Compound 356, N-(5-(3-(4-(Thiophen-2-yl)-1H-pyrrolo[2,3-b]pyridin-2-yl)-1H-pyrazolo[3,4-b]pyridin-5-yl)pyridin-3-yl)cyclopropanecarboxamide] | 6.37 | > 10 | 0.28 | – | 14.5 | – |
| Cc1ncc(-c2cnc3[nH]nc(-c4cc5c(-c6cc(F)cc(NCCN(C)C)c6)ccnc5[nH]4)c3c2)n1C [Compound 781, N^1-(3-(2-(5-(1,2-Dimethyl-1H-imidazol-5-yl)-1H-pyrazolo[3,4-b]pyridin-3-yl)-1H-pyrrolo[2,3-b]pyridin-4-yl)-5-fluorophenyl)-N^2,N^2-dimethylethane-1,2-diamine] | 4.46 | > 10 | > 10 | – | 0 | 44.5 |
